Data set [1] concerns the target bovine serum albumin (Bos taurus, UniProt P02769). The data set can be described thus: Incubation with bovine serum albumin monitored by 1H and 19F NMR. The settings on record: 72 h, 2.46 mM complex, 0.5 mM BSA, 310 K, pD 7.4.
The test system of data set [2] is 5′-GMP. Briefly: NMR binding study with the model ligand 5′-GMP. The settings on record: 1 eq. 5′-GMP, 2.46 mM complex, phosphate buffer 0.2 M, 310 K, 0.1 M NaCl. The procedure:
(§1) The coordination of a metallodrug, via the metal ion, to biomacromolecular targets is a major mechanism by which biological activity is exerted in many of these complexes. To evaluate the ability of intramolecular sulfonamide ligation to regulate the availability of a coordination site at the ruthenium ion in this family of complexes, and therefore control ligation of endogenous ligands to the complex, binding studies were performed between 4 (and the control compound 6) and the model ligands L-histidine and 5′-GMP. 4 and 6 were incubated with 1 eq. of 5′-GMP or L-histidine (2.46 mM complex, phosphate buffer (0.2 M), 310 K, 0.1 M NaCl) for 144 h at pD values of 7.5 and 6.5 in each case. Incubations were monitored by ^1H and ^19F NMR. […] The degree of L-histidine coordination was not able to be quantified using ^1H NMR due to hydrogen-deuterium exchange which occurs at the histidine C2 proton and low intensity and overlapping peaks, but was more pronounced at pD 7.5 than pD 6.5. […]
(§2) The reactivity of 4 and 6 towards 5′-GMP/L-histidine was assessed by mixing stock solutions of the complex and ligand in phosphate buffer (both in D2O, 0.1 M NaCl) to yield 1:1 solutions with each component present at a concentration of 2.46 mM (200 mM buffer concentration, 0.1 M NaCl). […] Samples were incubated at 310 K and monitored using ^1H and ^19F NMR. […]

The nature of data set [3]: NMR binding study with the model ligand L-histidine. The settings on record: 1 eq. L-histidine, 2.46 mM complex, phosphate buffer 0.2 M, 310 K, 0.1 M NaCl. The procedure: as §1, §2
Data set [4] deals with HT-29 cell line. Briefly: MTT cytotoxicity assay. It is filed as cell-based, human. The settings on record: HT-29, concentrations up to 100 µM, 72 h. The procedure:
Having established the ability of 4 to coordinate to biologically relevant ligands in a pH-dependent manner we evaluated the cytotoxicity of 4 (and 6 as a control unable to form an intramolecular chelate) against the HT-29 cell line using the MTT assay. In light of the potential non-covalent interaction of 4 with protein as described earlier these assays were performed for both 4 and 6 using media containing 10% and 1% fetal calf serum to assess the effect of serum concentration on cytotoxicity. […] It is clear that while 6 is readily able to coordinate to 5′-GMP and L-histidine, and presumably forms biomacromolecular adducts in cell culture experiments, the nature and/or level of adducts formed is not detrimental to HT-29 cell viability. The ability of 4 to form biomacromolecular adducts in cell culture conditions will be less than that of 6 due to substantial intramolecular sulfonamide ligation under these pH conditions. […]
HT-29 (human colon adenocarcinoma) cells were counted and the concentration adjusted to 3 × 10^4 cells/.mL 100 µL of the cell suspension was dispensed into the wells of a 96 well plate. […] The results were read on a plate reader (Biotek ELX800 Universal Microplate Reader) at 570 nm. The viability of the cells is expressed as % of cell survival of each dilution against the “cells only” control taken as 100% survival. […]

A short description of data set [5]: pH titration by 1H/19F NMR of open and chelate forms (apparent pKa). The settings on record: 2.46 mM complex, D2O, 0.1 M NaCl; for Apparent pKa: Henderson-Hasselbalch fit of % open form versus pD. In kind it is physicochemical. How it is done:
The ability of the tethered sulfonamide functionality to reversibly ligate to the ruthenium atom in a pH-dependent manner, forming an intramolecular chelate, was examined by recording ^1H NMR spectra of 1–5 (and ^19F NMR spectra for 2–5) (2.46 mM complex, D2O, […], 0.1 M NaCl) as a function of pH. Within these spectra two unique sets of signals were observed, the relative proportion of these being pH-dependent, that were assigned to the open and chelate forms of the complexes (Figures S12–S15). Plotting the percentage of open form of the complex, calculated from the ratio of selected ligand signals corresponding to the open and chelate forms of the complexes, versus pD yielded sigmoidal curves in each case and apparent pKa values for 1–5 (Table 1) were determined by fitting of the Henderson-Hasselbalch equation to the data (Figure 7 and Figure 8).
pH titrations of 1–6 and [Ru(η^6-C6H5CH2CH2NHTr)(C2O4)(H2O)] were conducted by adjustment of the pD of solutions of the complexes (2.46 mM, 295 K, 0.1 M NaCl) in D2O through addition of 1–5 µL aliquots of NaOD (3.6 wt.%) and DCl (1.8 wt.%) solutions in D2O. Following pD adjustment the solutions were left to equilibrate (for 1–6 this was up to 36 h) then the ^1H and ^19F spectra of each were recorded. The ratio of selected ligand signals (for example –CH3 for 1, arene resonances for 2, –CF3 for 3–5) corresponding to the open- and chelate-forms of the complex were determined for each pD value and enabled a plot of % open-form versus pD. pKa values were calculated through fitting of the Henderson-Hasselbalch equation to the data.

The nature of data set [6]: Solution stability (NaCl, arene loss on standing of NMR solution). It is filed as physicochemical. The settings on record: standing for extended periods of time (>24 h). The procedure:
A total of six half-sandwich ruthenium(II) arene complexes were synthesized for evaluation in this study (Figure 2). [Ru(η^6-C6H5CH2CH2NHR)(en)(Cl)]PF6 (R = Ms (1), tresyl (Tr) (2), Tf (3) or acetyl (6)) and [Ru(η^6-C6H5(CH2)3CH2NHTf)(en)(Cl)]PF6 (5) were prepared via reaction of the respective [RuCl2(η^6-C6H5(CH2)nCH2NHR)]2 (R = acetyl, Ms, Tf or Tr) complex with ethylenediamine followed by the addition of NH4PF6 then crystallization of the product by concentration of the methanol solution or via vapor diffusion with diethyl ether. [Ru(η^6:κ^1-C6H5(CH2)2CH2NTf)(en)]PF6 (4) was prepared via the reaction of [RuCl2(η^6-C6H5(CH2)2CH2NHTf)]2 with ethylenediamine then treatment with silver carbonate and triethylamine, followed by addition of NH4PF6 and precipitation of the product by concentration and cooling. All complexes are soluble in water (≥5 mM) and stable in the presence of NaCl (100 mM). All complexes were characterized by ^1H, ^13C and ^19F NMR spectroscopy, high resolution mass spectrometry and elemental analysis.
During these studies it was observed that for 1–3 arene-ruthenium cleavage began to occur on standing of the NMR solution for even relatively short periods of time (>1 h) (Figures S12–S14).

Data set [7] can be described thus: Conversion of chelate form to open form in citrate/phosphate buffer, 19F NMR. In kind it is physicochemical. The settings on record: 310 K. The procedure:
To gain further insight into the reactivity of 4 the conversion of the chelate form to open form of the complex was probed in three different citrate/phosphate buffer solutions at 310 K (Figure 9). Aqueous solutions of 4 at pD 7.61 (where the chelate form of the complex exists exclusively) were diluted into citrate/phosphate buffer to yield solutions at pD 4.12, 4.91 and 5.96 (2.46 mM complex, 0.1 M NaCl). The conversion of the chelate form to the open form was monitored by ^19F NMR spectroscopy over 16 h. Under the most acidic conditions (pD 4.12) equilibrium was reached within the 16 h experiment duration, with 93% of 4 converting to the open form.
The conversion of the chelate-form of 4 to the activated open-form was investigated by dilution of a stock solution of 4 (D2O, 0.1 M NaCl) into citrate/phosphate buffer solutions (D2O, 0.1 M NaCl) at pD 4.12, 4.91 and 5.96 to yield solutions at a final complex concentration of 2.46 mM. The samples were maintained at 310 K within the NMR spectrometer and ^19F NMR spectra were recorded every 15 min for 16 h. The ratio of the –CF3 signals corresponding to the open- and chelate-forms of the complex were determined to allow a plot of % open-form versus time. The fitting of the equation y = C + A(1−e^−kx) (C-offset from zero; A-amplitude of the curve) to each set of experimental data yielded the half-life for the fraction of the chelate-form of 4 which is converted to the open-form.

For data set [8] the following is noted: cited from earlier work.
On the set-up of data set [9]: method as in doi:10.1021/acs.organomet.7b00868. The settings on record: R = Ms, Tf; reported previously; cited from earlier work.

“Also recorded” adds a separate entry of the source. Like-named read-outs stand apart in the source and are kept apart here. Marks after values point to notes of the source that are not given here.

Chain of bovine serum albumin (P02769 25-607): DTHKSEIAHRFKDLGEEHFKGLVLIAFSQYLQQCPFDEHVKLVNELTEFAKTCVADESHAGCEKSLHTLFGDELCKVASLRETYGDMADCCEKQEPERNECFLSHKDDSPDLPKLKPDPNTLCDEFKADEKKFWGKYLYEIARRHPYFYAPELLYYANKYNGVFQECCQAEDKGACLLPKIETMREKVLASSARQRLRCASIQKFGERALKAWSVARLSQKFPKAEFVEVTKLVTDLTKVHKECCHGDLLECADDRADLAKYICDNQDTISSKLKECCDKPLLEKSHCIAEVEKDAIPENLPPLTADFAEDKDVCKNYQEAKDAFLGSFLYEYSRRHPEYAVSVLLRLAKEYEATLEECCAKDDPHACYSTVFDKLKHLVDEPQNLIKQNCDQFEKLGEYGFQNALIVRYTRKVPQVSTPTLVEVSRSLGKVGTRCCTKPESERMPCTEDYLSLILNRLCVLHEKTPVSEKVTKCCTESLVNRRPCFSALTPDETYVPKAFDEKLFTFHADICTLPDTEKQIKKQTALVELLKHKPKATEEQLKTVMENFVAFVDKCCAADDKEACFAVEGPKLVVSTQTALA

For “[Ru(η^6:κ^1-C6H5(CH2)2CH2NTf)(en)]PF6 [Complex 4]”, the “Non-covalent interaction with bovine serum albumin (1H NMR signals broader and slightly shifted)” value in data set [1] is “non-covalent interactions between 4 and the protein may be occurring”. Moreover, the “Reactivity (covalent interaction) towards bovine serum albumin” value in data set [1] (phosphate buffer 0.2 M, 0.1 M NaCl) was “lack of reactivity; also recorded: no covalent interaction”. Moreover, the “5′-GMP coordinated to the complex” value in [2] (pD 6.5, 144 h) is 16 ± 1.6%; in data set [2] (pD 7.5, 144 h), “no coordination”. Further, the “Coordination of L-histidine to the complex” value in [3] (pD 6.5, 144 h) was “lack of reactivity; also recorded: No coordination”; in [3] (pD 7.5, 144 h), “lack of reactivity; also recorded: no coordination”. For the same compound, the “Inhibition of cell growth (MTT)” value in [4] (media with 1% fetal calf serum) and in [4] (media with 10% fetal calf serum) was “no significant inhibition of cell growth” throughout. In data set [5], the “Apparent pKa” value is listed as 4.82. Also, in [6], the “Arene loss on standing of the NMR solution” value is listed as “not observed”. Moreover, in [7] (pD 4.12, equilibrium reached within 16 h, 2.46 mM complex, 0.1 M NaCl), the “Fraction converted to the open form at equilibrium” value is listed as 93%. Besides, the “Open form present at equilibrium (from data fitting)” value in [7] (pD 4.91, equilibrium not reached within 16 h) was determined as 61%; in data set [7] (pD 5.96, equilibrium not reached within 16 h), 24%.

As to “[Ru(η^6-C6H5(CH2)3CH2NHTf)(en)(Cl)]PF6 [Complex 5]”, the “Apparent pKa” value in data set [5] is given as 8.00. The “Arene loss on standing of the NMR solution” value in data set [6] is given as “not observed”.

For the compound “cis-[PtCl(Me2N(CH2)2PPh2-N,P)(Me2N(CH2)2PPh2-P)]Cl”, in [8], the “pKa (ring-open/ring-closed equilibrium, pH titrations)” value is 6.9.

As to [Ru(η^6-C6H5CH2CH2NHTf)(C2O4)(H2O)], the “Apparent pKa for the Analogous [Ru(η^6-C6H5CH2CH2NHR)(C2O4)(H2O)] Complex” value (shortened to “Apparent pKa for the Analogous”) in data set [9] is 4.05 ^‡.

In the case of [Ru(η^6-C6H5CH2CH2NHTr)(C2O4)(H2O)], the “Apparent pKa for the Analogous” value in data set [5] (R = Tr, 295 K) is reported as 5.75.

In the case of [Ru(η^6-C6H5CH2CH2NHMs)(C2O4)(H2O)], the “Apparent pKa for the Analogous” value in [9] was 6.65 ^‡.

Regarding `N[C@@H](Cc1c[nH]cn1)C(=O)O` [L-histidine], the “side chain pKa” value in data set [8] (imidazole) was 6.07.

On to `Nc1nc2c(ncn2[C@@H]2O[C@H](COP(=O)([O-])[O-])[C@@H](O)[C@H]2O)c(=O)[nH]1.[Na+].[Na+]` [5′-GMP, guanosine 5′-monophosphate disodium salt], for which the “pKa of the N7 position” value in data set [8] is 2.57.
